# In patent US20150038545A1, “HYDROXYPHENYL PYRROLE COMPOUNDS CONTAINING AN HYDROXAMIC ACID AS HDAC INHIBITORS AND MEDICINAL APPLICATIONS THEREOF” (UNIVERSIDAD DEL PAÍS VASCO, priority 2011, published 2015):
# How the values were obtained:
# [1] = biological target: T1, Human HDAC9 (Homo sapiens, UniProt Q9UKV0); experiment: In vitro HDAC9 inhibition, fluorogenic peptide assay; format: biochemical; conditions: for IC50: read-out: IC50 (nM) of enzyme activity HDAC9
# T1 construct: Amino acids 604-1066 with C-terminal His tag, MW=50.7 kDa; His (C); purchased BioMol, Hamburg, Germany
# T1 sequence (Q9UKV0 604-1066 isoform Q9UKV0-7): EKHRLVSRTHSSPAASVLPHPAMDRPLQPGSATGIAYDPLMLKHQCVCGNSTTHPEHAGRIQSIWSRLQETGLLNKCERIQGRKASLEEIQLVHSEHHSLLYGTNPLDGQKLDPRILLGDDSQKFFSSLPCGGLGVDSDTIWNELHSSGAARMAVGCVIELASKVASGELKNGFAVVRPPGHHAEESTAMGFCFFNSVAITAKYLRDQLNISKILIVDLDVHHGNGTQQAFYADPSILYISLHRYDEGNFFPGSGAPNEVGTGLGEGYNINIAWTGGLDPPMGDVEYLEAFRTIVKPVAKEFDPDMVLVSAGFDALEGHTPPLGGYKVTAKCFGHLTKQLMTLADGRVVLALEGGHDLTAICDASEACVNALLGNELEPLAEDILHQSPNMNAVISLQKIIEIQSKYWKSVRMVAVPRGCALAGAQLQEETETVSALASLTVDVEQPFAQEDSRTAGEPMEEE
# Description: All HDAC assays were performed using acetylated AMC-labeled peptide substrate: • Substrate for isoforms HDAC1, 2, 3, 4, 5, 6, 7, 9, 10, 11 and HeLa nuclear extract assays: Acetylated fluorogenic peptide from p53 residues 379-382 (RHKKAc) (BioMol. Cat. # KI-104). • Substrate for HDAC8 assays: Acetylated fluorogenic peptide from p53 residues 379-382 (RHKAcKAc) (BioMol. Cat. # KI-178).
# Enzymes: • HDAC1 assay: 75 nM Human HDAC1 (GenBank Accession No. NM_004964): Full length with C-terminal GST tag, MW=79.9 kDa, expressed by baculovirus expression system in Sf9 cells (BioMol. Cat. # SE-456). • HDAC2 assay: 5 nM Human HDAC2 (GenBank Accession No. Q92769): Full length with C-terminal His tag, MW=60 kDa, expressed by baculovirus expression system in Sf9 cells (BioMol. Cat. # SE-500). • HDAC3 assay: 2.3 nM Human HDAC3/NcoR2 (GenBank Accession No. NM_003883 for HDAC3, GenBank Accession No.NM_006312 for NcoR2): Complex of human HDAC3, full length with C-terminal His tag, MW=49.7 kDa, and human NCOR2, N-terminal GST tag, MW=39 kDa, co-expressed in baculovirus expression system (BioMol. Cat. # SE-507). • HDAC4 assay: 266 nM Human HDAC4 (GenBank Accession No. NM_006037): Amino acids 627-1085 with N-terminal GST tag, MW=75.2 kDa, expressed in baculovirus expression system (BioMol, Hamburg, Germany). • HDAC5 assay: 588 nM Human HDAC5 (GenBank Accession No. NM_001015053): Full length with Nterminal GST tag, MW=150 kDa, expressed by baculovirus expression system in Sf9 cells (BioMol, Hamburg, Germany). • HDAC6 assay: 13 nM Human HDAC6 (GenBank Accession No. BC069243): Full length with N-terminal GST tag, MW=159 kDa, expressed by baculovirus expression system in Sf9 cells (BioMol. Cat. # SE-508). • HDAC7 assay: 962 nM Human HDAC7 (GenBank Accession No. AY302468): Amino acids 518-end with N-terminal GST tag, MW=78 kDa, expressed in baculovirus expression system (BioMol, Hamburg, Germany). • HDAC8 assay: 119 nM Human HDAC8 (GenBank Accession No. NM018486): Full length, MW=42 kDa, expressed in an E. coli expression system (BioMol. […]
# The reactions were carried out in a 96-well microplate for fluorometry in a 50 μl reaction volume. […] The reaction was allowed to develop for 45 minutes at 30° C. with 5% CO2; then the fluorescent signal was measured with an excitation wavelength at 360 nm and an emission wavelength at 460 nm in a microplate-reading fluorometer (GeminiXS; Molecular Devices, Sunnyvale, Calif.). […] IC50 was calculated by fitting the experimental data to a dose-response curve. […]
# [2] = system: U-87MG; experiment: Cancer cell growth inhibition (CellTiter-Glo), U-87MG; format: cell-based, Human; conditions: Homo sapiens, Glioblastoma, 72 h treatment
# Description: (§1) Cell culture-based assays were used to evaluate the ability of compounds of the invention to inhibit cancer cell growth.
# (§2) Cells were obtained from the American Type Culture Collection (ATCC). Cells were cultured at 37° C. with 5% CO2 in the appropriate growth medium (see table below), and harvested respectively during the logarithmic growth period and counted with hemocytometer. The cell viability was examined by trypan blue exclusion. Cell concentrations were adjusted to 5.56×10^4 cells/ml with respective medium.
# (§3) Stock solutions of test compounds and positive drugs Doxorubicin (Zhejiang, Haizheng, China), Cisplatin (Nanjing Zhiyao, China) and Mitomycin (Zhejiang, Haizheng, China) were prepared in dimethyl sulphoxide (DMSO) or PBS at 20 mM.
# (§4) In order to determine the IC50 for each compound, experiments were carried out in 96-well plates and the cell lines seeded at a density of 5,000 cells/well. […] All treatments were performed in triplicate. 10 μl of drug solution was added to each well and incubated for 72 hours. At the end of the incubation, 100 μl of the CellTiter-Glo Reagent were added to each well and the contents were mixed for 2 munites on an orbital shaker to induce cell lysis. The plate was incubated at room temperature for 10 minutes to stabilize luminiscent signal, and luminiscent was recorded. […] In order to calculate IC50 values, dose-responsive curves were fitted using nonlinear regression model with a sigmoidal dose response.
# [3] = system: HepG2; experiment: Cancer cell growth inhibition (CellTiter-Glo), HepG2; format: cell-based; conditions: Homo sapiens; Liver Cancer, HepG2, 72 h treatment
# Description: as §1, §2, §3, §4
# [4] = system: CNE2; experiment: Cancer cell growth inhibition (CellTiter-Glo), CNE2; format: cell-based, Human; conditions: Homo sapiens, CNE-2; Nasopharyngeal, CNE2, 72 h treatment
# Description: as §1, §2, §3, §4
# [5] = system: K562; experiment: Cancer cell growth inhibition (CellTiter-Glo), K562; format: cell-based, Human; conditions: Homo sapiens; CML, K562, 72 h treatment
# Description: as §1, §2, §3, §4
SMILES,Selectivity against HDAC6 (IC50 HDACx/IC50 HDAC6) HDAC9 ([1]; IC50 HDAC9/IC50 HDAC6),IC50 [1],IC50 [2],IC50 [3],IC50 [4],IC50 [5]
"COc1ccc(-c2cc(-c3ccccc3)[nH]c2C(=O)NCCCCCC(=O)NO)cc1 [Compound A, N-[6-(hydroxyamino)-6-oxohexyl]-3-(4-methoxyphenyl)-5-phenyl-1H-pyrrole-2-carboxamide, reference compound]",38.4,768 nM,,,,
"O=C(CCCCCNC(=O)c1[nH]c(-c2ccccc2)cc1-c1ccc(O)cc1)NO [Example 1, N-(6-(hydroxyamino)-6-oxohexyl)-3-(4-hydroxyphenyl)-5-phenyl-1H-pyrrole-2-carboxamide]",,,5.67 µM,1.1 µM,2.77 µM,1.02 µM
"O=C(CCCCCNC(=O)c1[nH]c(-c2ccc(O)cc2)cc1-c1ccccc1)NO [Example 2, N-(6-(hydroxyamino)-6-oxohexyl)-5-(4-hydroxyphenyl)-3-phenyl-1H-pyrrole-2-carboxamide]",,,11.8 µM,0.99 µM,10.1 µM,1.61 µM
"O=C(CCCCCNC(=O)c1[nH]c(-c2ccc(O)cc2)cc1-c1ccoc1)NO [Example 5, 3-(3-furyl)-N-(5-(hydroxycarbamoyl)pentyl)-5-(4-hydroxy-phenyl)-1H-pyrrole-2-carboxamide]",,27 nM,8.72 µM,0.28 µM,10.1 µM,1.75 µM
"O=C(CCCCCNC(=O)c1[nH]c(-c2ccc(O)cc2)cc1-c1ccsc1)NO [Example 6, N-(5-(hydroxycarbamoyl)pentyl)-5-(4-hydroxyphenyl)-3-(3-thienyl)-1H-pyrrole-2-carboxamide]",,80 nM,8.98 µM,0.48 µM,7.39 µM,1.35 µM
